ChEMBL document CHEMBL1201862, “PubChem BioAssay data set” (2004)
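How tested: cells in 96-well plates exposed to compound for 48 hours at five concentrations. GI50 marks 50% less growth.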 The source made the active and inactive calls. Cut-off read from the data, not from the text of the source: active = GI50 up to about 1.1 µM and inactive = higher.

What was measured:
Assay in all cases: DTP human tumour cell line panel, 48 h
SK-MEL-2 = system: SK-MEL-2
786-0 = system: 786-0
RXF 393 = system: RXF 393
MDA-N = system: MDA-N
CCRF-CEM = system: CCRF-CEM
COLO 205 = system: COLO 205
SF-295 = system: SF-295
SW-620 = system: SW-620
M14 = system: M14
OVCAR-8 = system: OVCAR-8
K562 = system: K562
SK-MEL-5 = system: SK-MEL-5
BT-549 = system: BT-549
DU-145 = system: DU-145
MOLT-4 = system: MOLT-4
PC-3 = system: PC-3
SNB-75 = system: SNB-75
UO-31 = system: UO-31
HOP-62 = system: HOP-62

Measured: GI50

CC1=C(C(=O)N[C@@H](Cc2ccccc2)C(=O)O)N2C(=O)[C@@H](NC(=O)[C@@H](N)CC(C)C)[C@H]2SC1
inactive: SK-MEL-2 > 100 µM | 786-0 > 100 µM | RXF 393 > 100 µM | MDA-N > 100 µM | CCRF-CEM > 100 µM | COLO 205 > 100 µM | SF-295 > 100 µM | SW-620 > 100 µM | M14 > 100 µM | OVCAR-8 > 100 µM | K562 > 100 µM | SK-MEL-5 > 100 µM | BT-549 > 100 µM | DU-145 > 100 µM | MOLT-4 > 100 µM | PC-3 > 100 µM | SNB-75 > 100 µM

O=C1CSC2(CC(/C=C/c3ccccc3Br)=NN2c2cccc(S(=O)(=O)O)c2)N1c1nc2ccccc2s1 (centres undefined)
inactive: SK-MEL-2 > 100 µM | 786-0 > 100 µM | RXF 393 > 100 µM | MDA-N > 100 µM | UO-31 93.5 µM | CCRF-CEM 30.5 µM | COLO 205 > 100 µM | SW-620 > 100 µM | M14 > 100 µM | OVCAR-8 > 100 µM | K562 54.8 µM | SK-MEL-5 76 µM | BT-549 > 100 µM | DU-145 > 100 µM | MOLT-4 52 µM | PC-3 > 100 µM | SNB-75 > 100 µM

CCOC(=O)CC1CCN(C(=O)c2ccccc2)C2Cc3c([nH]c4ccccc34)C12C[N+](=O)[O-] (centres undefined)
inactive: SK-MEL-2 > 100 µM | RXF 393 77.1 µM | MDA-N > 100 µM | UO-31 48.3 µM | CCRF-CEM 12.6 µM | COLO 205 61 µM | SF-295 40.5 µM | SW-620 > 100 µM | M14 63.2 µM | OVCAR-8 79.3 µM | K562 36.4 µM | SK-MEL-5 57.8 µM | HOP-62 46.1 µM | BT-549 > 100 µM | DU-145 > 100 µM | MOLT-4 35 µM | PC-3 43.5 µM | SNB-75 56.6 µM

NC(CCCCP(=O)(O)O)C(=O)O (centres undefined)
inactive: SK-MEL-2 > 100 µM | RXF 393 > 100 µM | MDA-N > 100 µM | UO-31 > 100 µM | CCRF-CEM > 100 µM | COLO 205 > 100 µM | SF-295 > 100 µM | SW-620 > 100 µM | M14 > 100 µM | OVCAR-8 > 100 µM | K562 > 100 µM | SK-MEL-5 > 100 µM | BT-549 > 100 µM | DU-145 > 100 µM | MOLT-4 > 100 µM | PC-3 > 100 µM | SNB-75 > 100 µM

CC#CC#C/C=C1/O[C@]2(CCC(OC(=O)CC(C)C)CO2)[C@@H]2O[C@H]12 (some centres undefined)
inactive: SK-MEL-2 21.6 µM | 786-0 20.9 µM | RXF 393 21.7 µM | MDA-N 22.5 µM | UO-31 18.9 µM | CCRF-CEM 7.69 µM | SW-620 19.2 µM | M14 21.9 µM | OVCAR-8 32.4 µM | K562 31.3 µM | HOP-62 42.7 µM | BT-549 24.1 µM | DU-145 42.5 µM | MOLT-4 18.7 µM | PC-3 23.5 µM | SNB-75 78.5 µM

Cc1c(-c2ccccc2)c(C#N)c2nnn(C)c(=O)n12
inactive: SK-MEL-2 > 100 µM | 786-0 > 100 µM | RXF 393 57.1 µM | MDA-N > 100 µM | UO-31 > 100 µM | CCRF-CEM > 100 µM | COLO 205 > 100 µM | SF-295 68.9 µM | SW-620 > 100 µM | M14 > 100 µM | OVCAR-8 > 100 µM | K562 > 100 µM | SK-MEL-5 > 100 µM | HOP-62 44 µM | BT-549 > 100 µM | DU-145 > 100 µM | PC-3 64.3 µM | SNB-75 42.8 µM

Oc1c(Br)c(-c2ccccc2)nc2ccccc12
inactive: SK-MEL-2 > 10 µM | RXF 393 63.1 µM | MDA-N 39.2 µM | UO-31 4.71 µM | CCRF-CEM 44 µM | COLO 205 > 21.7 µM | SF-295 8.75 µM | SW-620 97.5 µM | M14 47 µM | K562 1.9 µM | SK-MEL-5 8.15 µM | HOP-62 > 62.1 µM | BT-549 58.1 µM | DU-145 > 69.5 µM | MOLT-4 8.15 µM | PC-3 9.38 µM | SNB-75 8.15 µM

N#Cc1ccccc1NC(=O)C(O)C(O)C(O)C(O)C=O (centres undefined)
inactive: SK-MEL-2 > 100 µM | 786-0 > 100 µM | RXF 393 > 100 µM | MDA-N > 100 µM | UO-31 > 100 µM | CCRF-CEM > 100 µM | COLO 205 > 100 µM | SF-295 > 100 µM | SW-620 > 100 µM | M14 > 100 µM | OVCAR-8 > 100 µM | K562 > 100 µM | SK-MEL-5 > 100 µM | BT-549 > 100 µM | DU-145 > 100 µM | MOLT-4 > 100 µM | PC-3 > 100 µM | SNB-75 > 100 µM

Cc1ccc(C2=Nc3c(N)nc(N)nc3NC(c3ccccc3)C2)cc1 (centres undefined)
inactive: 786-0 13.2 µM | RXF 393 7.36 µM | MDA-N 2.12 µM | UO-31 11.5 µM | CCRF-CEM 7.83 µM | SW-620 4.02 µM | M14 6.4 µM | OVCAR-8 13.1 µM | K562 3.51 µM | HOP-62 9.55 µM | BT-549 7.23 µM | DU-145 14.7 µM | MOLT-4 7.43 µM | PC-3 10.4 µM | SNB-75 11.2 µM

CC1=NC(=Cc2ccccc2O)C(=O)N1n1c(-c2ccccc2)nc2ccccc2c1=O
inactive: 786-0 45.5 µM | RXF 393 31 µM | MDA-N 41.3 µM | UO-31 32.9 µM | CCRF-CEM 26.6 µM | COLO 205 34.5 µM | SF-295 37.3 µM | SW-620 49.1 µM | M14 61.1 µM | OVCAR-8 33.7 µM | K562 30.5 µM | SK-MEL-5 23.8 µM | HOP-62 55.1 µM | BT-549 57.7 µM | DU-145 29.1 µM | MOLT-4 20.6 µM | PC-3 30.3 µM | SNB-75 34.1 µM

O=C(O)C(CCc1ccccn1)c1ccccc1 (centres undefined)
inactive: SK-MEL-2 > 100 µM | 786-0 > 100 µM | RXF 393 > 100 µM | MDA-N > 100 µM | UO-31 > 100 µM | COLO 205 > 100 µM | SF-295 > 100 µM | SW-620 > 100 µM | M14 > 100 µM | OVCAR-8 > 100 µM | K562 > 100 µM | SK-MEL-5 > 100 µM | HOP-62 > 100 µM | BT-549 > 100 µM | DU-145 > 100 µM | MOLT-4 > 100 µM | PC-3 > 100 µM | SNB-75 > 100 µM
